Measured values taken from the METLIN SMRT retention time set (Domingo-Almenara et al. 2019).

Experiment: gradient 5% acetonitrile 3 min, to 50% in 2 min, to 85% in 15 min, held 3 min, 100 µL/min
Settings: column: Zorbax Extend-C18 2.1 x 50 mm; eluents: water / acetonitrile, 0.1% formic acid
How it was run: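 In both positive and negative ionization mode, a quadrupole time-of-flight mass spectrometer coupled to HPLC analyzed pure standards run in mixtures of ~100 molecules. The Zorbax Extend-C18 column (2.1 × 50 mm, 1.8 μm) was operated at 100 μL/min with water and acetonitrile, each containing 0.1% formic acid. The dead volume was 40 μL and the dwell volume 900 μL. Retention time came from adduct peaks that were computationally picked and individually inspected by hand.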

Row | SMILES | RP-LC retention time
1 | c1ccc(C(NCCNC(c2ccccc2)c2ccccc2)c2ccccc2)cc1 | 849 s
2 | Cc1cc(C)n(-c2nc(-c3ccccc3)cc(=O)n2CC(=O)N2CCCc3ccccc32)n1 | 1040 s
3 | COc1ccc(CN2CCC3(CC2)CC(O)CCO3)cc1C (stereo not given) | 606 s
4 | CCCNc1cc(N2CCC(CCC(=O)NCc3ccc(F)cc3Cl)CC2)ncn1 | 727 s
5 | CC(C)C(=O)Nc1ccc(CCc2nc3ccc(C(=O)NCCC4=CCCCC4)cc3[nH]2)cc1 | 731 s
6 | Cc1ccc(-c2noc(-c3ccc(=O)n(CC(=O)OC(C)C)n3)n2)cc1 | 1050 s
7 | CCOC(=O)c1c(S(=O)(=O)N2CCC(C(=O)Nc3ncccc3C)CC2)c(C)n(C)c1C | 632 s
8 | CS(=O)(=O)N1CCC(OC2CCN(C(=O)NCc3ccccc3)CC2)CC1 | 704 s
9 | CCCCCC(=O)N1CCCCC1 | 909 s
10 | O=C1NCCCn2cc(S(=O)(=O)Nc3ccc(OC(F)(F)F)cc3)cc21 | 739 s
11 | C=Cc1ccc(CN2C(=O)N(c3ccc(F)cc3)c3ncccc3S2(=O)=O)cc1 | 886 s
12 | Cc1ccc2c(c1)c1c(n2CC(O)Cn2nc(C)cc2C)CCCC1 (stereo not given) | 1050 s
13 | COc1ccc(C2Cn3nnc(-c4nc(-c5ccc(OC(F)(F)F)cc5)no4)c3CO2)cc1 (stereo not given) | 1240 s
14 | CC(C)c1ccc(Sc2ccc(N3CCC(C(=O)NCCCO)CC3)nn2)cc1 | 703 s
15 | O=C(NCCCCCCCCNC(=O)c1cccc2ccccc12)c1cccc2ccccc12 | 1010 s
16 | Cc1nc(N2CCCC2)c2c(C(=O)Nc3cccc(F)c3)c(C)oc2n1 | 784 s
17 | CC(CCc1ccccc1)NC(=O)C1CN(C(=O)c2cccs2)C1 (stereo not given) | 727 s
18 | COc1ccc(S(=O)(=O)NCc2c(-c3ccccc3)nc3sc(C)nn23)cc1Cl | 912 s
19 | Cc1ccccc1NC(=O)N1CCC2(CC1)Nc1ccccc1-n1cccc12 | 982 s
20 | O=C(O)CNS(=O)(=O)c1cccc2nsnc12 | 595 s
21 | COC(=O)c1cc(OCC(=O)Nc2ccc3c(c2)OCO3)c2cc(F)ccc2n1 | 778 s
22 | Cc1cccc(C)c1NC(=O)C1CCN(S(=O)(=O)c2ccc3c(c2)NC(=O)C(C)O3)CC1 (stereo not given) | 824 s
23 | Cc1cc2[nH]c(=O)[nH]c2cc1S(=O)(=O)Nc1cccc(Cl)c1 | 690 s

Row | SMILES | RP-LC retention time
24 | COc1ccc(F)c(F)c1C(=O)c1cnc(NC2CCN(S(C)(=O)=O)CC2)nc1N | 784 s
25 | CCNc1cc(C)nc(N2CCN(C(=O)C(C)(C)C)CC2)n1 | 632 s
26 | CCN(Cc1ccccc1)C(=O)CN1C(=O)CCCc2cc(S(=O)(=O)N3CCOCC3)ccc21 | 825 s
27 | CCC(=O)N1CCCCCCNC(=O)[C@@H]2CCC[C@@H]21 | 657 s
28 | CCc1ccc(CNC(=O)CN2CCc3ccccc3C2C(=O)N2CCC(C)CC2)cc1 (stereo not given) | 1050 s
29 | Cn1cc(S(=O)(=O)N2CCC(C(=O)Nc3nccs3)CC2)cc1C(=O)N1CCCC1 | 662 s
30 | Cc1c(-c2ccc(-c3ccccc3F)cc2)nc2ccc(F)cc2c1C(=O)O | 967 s
31 | Cc1ccc(Cn2c(=O)n(CCNC(=O)CC(C)(C)C)c3ncccc32)cc1 | 855 s
32 | COc1cc(NC(=O)C2CCCN(S(=O)(=O)c3cc(-c4noc(C)n4)cs3)C2)cc(OC)c1 (stereo not given) | 949 s
33 | Cc1cccc(CNC(=O)Cn2nc(C(=O)N3CCCC3)c3ccccc32)c1 | 828 s
34 | CCCNC(=O)Cc1nnc(-c2ccc(C)cc2)o1 | 710 s
35 | CC(=O)NCCc1c(Cc2ccccc2)[nH]c2ccccc12 | 876 s
36 | COc1ccc(-c2cc3nn(CC(=O)N4CCC(C)CC4)c(=O)n3c(C)n2)cc1 | 894 s
37 | Cc1ccc(S(=O)(=O)N2CCc3c(c(-c4nnc(-c5ccc(F)cc5)o4)nn3C)C2)cc1Cl | 1040 s
38 | Cc1ccc2[nH]cc(CCNC(=O)CCC(=O)N3CCSc4c3c(C)nn4-c3ccccc3)c2c1 | 896 s
39 | CCc1ccc(S(=O)(=O)N(C)CC2CCOCC2)cc1 | 911 s
40 | O=C(c1cnc[nH]1)N1CC(F)(F)C[C@H]1c1nc(C2CC2)no1 | 630 s
41 | CC(C)(C)NC(=O)N(Cc1ccsc1)CC(F)(F)F | 925 s
42 | Cc1nc2cc(-c3noc(-c4ccc5c(c4)OCO5)n3)ccc2o1 | 1050 s
43 | COC(=O)CSc1nnc(CNC(=O)c2ccccc2F)n1Cc1ccccc1 | 683 s
44 | COc1ccc(-c2noc3ncnc(N4CCC(C(=O)N5CCC(C(N)=O)CC5)CC4)c23)cc1 | 656 s
45 | Cc1cccc(N2CCN(C(=O)C3CCCN(c4nc5ccccc5n5cccc45)C3)CC2)c1C (stereo not given) | 977 s
46 | CNC(=O)Nc1ccc(S(N)(=O)=O)cc1 | 604 s

Row | SMILES | RP-LC retention time
47 | O=C(Cn1nc2ncccn2c1=O)NCc1ccco1 | 539 s
48 | CC1(C(=O)NCc2ccc(F)cc2)CN(S(=O)(=O)c2ccccc2)CC(=O)N1C1CC1 (stereo not given) | 816 s
49 | O=C(NCCn1nc(-n2ccnc2)ccc1=O)c1cc(-c2ccccc2)on1 | 572 s
50 | CC(=O)N1CCCC(c2nc(CNC(=O)C(C)C)cs2)C1 (stereo not given) | 609 s
51 | CCOC(=O)c1c(C)c(CCC(=O)N2CCN(c3ncccn3)CC2)n(C)c1C | 765 s
52 | O=C(NC1CCCc2c1[nH]c1ccc(Cl)cc21)c1ccncc1 (stereo not given) | 859 s
53 | O=C(CCc1conc1-c1ccccc1)N1CCN(C2CCCCC2)CC1 | 630 s
54 | CSc1ccc(CNC(=O)Cn2cnc3nc4c(cc3c2=O)CCCC4)cc1 | 733 s
55 | Cc1cc(C)n(CCN(C(=O)c2ccc([N+](=O)[O-])s2)c2nc3ccccc3s2)n1 | 1020 s
56 | Cc1ccc(NS(=O)(=O)c2cc(-c3[nH]ncc3C(=O)N(C)C)oc2C)c(F)c1 | 678 s
57 | Cc1cc2c(=O)n(CC(=O)NCc3cccc(Cl)c3)c3cccnc3n2n1 | 727 s
58 | COc1cc2c(c(OC)c1OC)-c1ccc(OC)c(=O)cc1[C@@H](NC(=O)c1ccccc1)CC2 | 722 s
59 | CC(C)COC(=O)c1ccc(NC(=O)C2C3CCC(C3)C2C(=O)O)cc1 (stereo not given) | 901 s
60 | COc1cccc(CC(=O)Nc2cnn(C)c(=O)c2N2CCOCC2)c1 | 725 s
61 | O=C(NCc1ccco1)Nc1ccccc1Cl | 766 s
62 | Cn1c(CN2CCN(C(=O)c3cccs3)CC2)nc2cc(C(=O)N3CCCC3)ccc21 | 597 s
63 | CCn1cnc2ccc(-c3noc(COc4ccc(Cl)cc4)n3)cc21 | 815 s
64 | Cc1nn2c(CNC(=O)c3ccc(F)cc3)c(-c3ccccc3)nc2s1 | 840 s
65 | O=c1ccn(-c2cccc(F)c2)nc1-c1nc(-c2ccccc2)no1 | 851 s
66 | O=C(NC1CCCC1)N1CCc2nc(-c3ccccc3)ncc2C1 | 822 s
67 | Cc1cccc(-c2nnc(-c3ccc(Cl)c(S(=O)(=O)N4CCOCC4)c3)o2)c1 | 1020 s
68 | O=C(NCC(F)(F)F)c1ccc(N2CCCC2)nn1 | 570 s
69 | Cc1nc2cc(-c3noc(-c4ccc(Br)cc4)n3)ccc2o1 | 1230 s

Row | SMILES | RP-LC retention time
70 | Cn1nc(-c2nc(C3CC3)no2)c2c1CCN(C(=O)c1ccc(C(F)(F)F)s1)C2 | 970 s
71 | Cc1cccc(CNC(=O)C2(C)Oc3cccnc3N(C)C2=O)c1 (stereo not given) | 876 s
72 | O=C(NCCc1c[nH]c2ccc(F)cc12)c1ccc(F)cc1-n1cnnn1 | 756 s
73 | Cc1c(C(=O)N2CCCC2)cnn1-c1ccc(-c2nc(C(C)(C)C)no2)cn1 | 1010 s
74 | Cc1ccc(NC(=O)Cc2nnc3ccc(-c4nc(C)no4)cn23)c(C)c1 | 781 s
75 | CC1=C(c2cccc(Br)c2)S(=O)(=O)N=C1N1CCN(c2ccccn2)CC1 | 686 s
76 | CN1C(=O)c2cccnc2Sc2cc(NC(=O)COc3ccccc3)ccc21 | 813 s
77 | COc1ccc(-c2nc(NCCC3=CCCCC3)c3ccccc3n2)cc1 | 933 s
78 | CCc1noc(-c2cccn2CC#N)n1 | 824 s
79 | Cc1ccc(-c2nc(CN3C(=O)C(O)(c4ccccc4)c4ccccc43)c(C)o2)cc1 (stereo not given) | 1120 s
80 | CSc1cccc(NC(=O)Cn2c(C)nc3c(sc4nc(-c5ccccc5)ccc43)c2=O)c1 | 1100 s
81 | O=C(NCc1csc(-c2cccs2)n1)C1CCN(S(=O)(=O)c2cccc(Cl)c2)CC1 | 927 s
82 | CN(C)C(=O)c1ccc2oc(CN3CCN(C(=O)NCc4ccco4)CC3)nc2c1 | 582 s
83 | CCOC(=O)c1c(C)[nH]c(C(=O)N2CCC(CC(=O)NC(C)CC)CC2)c1C (stereo not given) | 715 s
84 | CCS(=O)(=O)N1CCCC(n2c(C)cnc2-c2ccncc2)C1 (stereo not given) | 565 s
85 | COc1ccc(OC)c(NC(=O)c2nc(N(C)C)c3c(C)cc(C)nc3n2)c1 | 676 s
86 | CCN1CCN(C(=O)c2cnn(-c3cc(-c4nc(C5CC5)no4)ccn3)c2C)CC1 | 641 s
87 | CCCSc1nnc(NC(=O)c2c(-c3ccccc3Cl)noc2C)s1 | 956 s
88 | O=C(CSc1ccc(N2CCCC(C(=O)NC3CC3)C2)nn1)Nc1ccc(F)c(Cl)c1 (stereo not given) | 660 s
89 | O=C1CCCC1C(=O)Nc1ccc2ccccc2c1 (stereo not given) | 884 s
90 | Cc1ccc2ncn(C3CCN(C(=O)Nc4ccc(C)c(F)c4)CC3)c(=O)c2c1 | 851 s
